Results from US20110275643A1, “AROYLQUINOLINE COMPOUNDS” (NATIONAL HEALTH RESEARCH INSTITUTES, priority 2010, published 2011).
Read-outs that look alike come from different tables or passages of the source.

What was measured:
[1] = system: oral epidermoid carcinoma KB cells; experiment: In vitro cell growth inhibition, methylene blue dye assay, KB cells; type: cell-based, Human; conditions: Homo sapiens
Protocol: (§1) Human oral epidermoid carcinoma KB cells, non-small-cell lung carcinoma H460 cells, colorectal carcinoma HT29 cells and stomach carcinoma MKN45 cells were maintained in RMPI-1640 medium supplied with 5% fetal bovine serum (FBS). […] Cells in logarithmic phase were cultured at a density of 5000 cells/mL/well in a 24-well plate. KB-VIN10 cells were cultured in drug-free medium for 3 days prior to use. The cells were exposed to various concentrations of the test drugs for 72 hours. The methylene blue dye assay was used to evaluate the effect of the test compounds on cell growth (Finlay et al., 1984).

[2] = system: KB-VIN10 cells (overexpression of P-gp170/MDR); experiment: In vitro cell growth inhibition, methylene blue dye assay, MDR-positive KB-VIN10 cells; type: cell-based, Human; conditions: Homo sapiens, read-out: IC50 on the proliferation of cells, KB-VIN10
Protocol: as §1

[3] = system: non-small-cell lung carcinoma H460 cells; experiment: In vitro cell growth inhibition, methylene blue dye assay, H460 cells; type: cell-based, Human; conditions: Homo sapiens, read-out: IC50 on the proliferation of cells, H460
Protocol: as §1

[4] = system: colorectal carcinoma HT29 cells; experiment: In vitro cell growth inhibition, methylene blue dye assay, HT29 cells; type: cell-based, Human; conditions: Homo sapiens, read-out: IC50 on the proliferation of cells, HT29
Protocol: as §1

[5] = system: stomach carcinoma MKN45 cells; experiment: In vitro cell growth inhibition, methylene blue dye assay, MKN45 cells; type: cell-based, Human; conditions: Homo sapiens, read-out: IC50 on the proliferation of cells, MKN45
Protocol: as §1

[6] = system: five cancer cell lines (KB, H460, HT29, MKN45, KB-VIN10); experiment: Antiproliferative activity, mean over five cancer cell lines; type: cell-based, Human
Protocol: The synthesized compounds 5 to 17 were evaluated for antiproliferative activities against four carcinoma cells, oral epidermoid carcinoma KB cells, non-small-cell lung carcinoma H460 cells, colorectal carcinoma HT29 cells and stomach carcinoma MKN45 cells, as well as the MDR-positive cell lines KB-VIN10, that overexpressed P-gp 170/MDR (Table 1). The controls were compounds 1 and 3.
as §1

[7] = read-out: 50% Inhibition concentration (IC50) on the proliferation of KB cells line, Table 2, KB cells
[8] = KB-VIN10 cells, 72 hours, mean ± SD
[9] = NCI-H460, H460 cells, 72 hours, mean ± SD
[10] = HT-29, HT29 cells, 72 hours, mean ± SD
[11] = MKN-45, MKN45 cells, 72 hours, mean ± SD
[12] = KB cells, 72 hours, mean ± SD, read-out: IC50 on the proliferation of cells, KB

IC50 [1, 7] [nM] | melting point [°C] | Structure (SMILES) | also measured
> 10000 | 129 to 130 | COc1ccc(-c2ccc3c(OC)c(OC)c(OC)cc3n2)cc1F [Compound 66, 2-(3′-fluoro-4′-methoxyphenyl)-5,6,7-trimethoxyquinoline] | 
1670 | 117 to 118 | COc1ccc(C(=O)c2ccnc3c(OC)c(OC)c(OC)cc23)cc1F [Compound 67, 4-(3′-fluoro-4′-methoxybenzoyl)-6,7,8-trimethoxyquinoline] | 
495 | 151 to 153 | COc1cc(C(=O)c2ccc3c(C#CC(C)(C)O)c(OC)ccc3n2)cc(OC)c1OC [Compound 44, 5-(3″-hydroxy-3″-methylbut-1″-ynyl)-6-methoxy-2-(3′,4′,5′-trimethoxybenzoyl)quinoline] | 
> 1000 | 103 to 105 | COc1ccc(C(=O)c2ccc3c(OC)c(OC)c(OC)cc3n2)cc1 [Compound 49, 2-(4′-methoxybenzoyl)-5,6,7-trimethoxyquinoline] | 
> 10000 | 201 to 203 | COc1cc(C(=O)c2ccc3c(-c4ccc(O)cc4)c(OC)ccc3n2)cc(OC)c1OC [Compound 30, 5-(4″-hydroxyphenyl)-6-methoxy-2-(3′,4′,5′-trimethoxybenzoyl)quinoline] | 
 | 162.5 to 164.1 | COc1cc(C(=O)c2ccnc3c(OC)cccc23)cc(OC)c1OC [Compound 13, 8-methoxy-4-(3′,4′,5′-trimethoxybenzoyl)quinoline] | IC50 [2, 8]: 165 ± 33 nM; IC50 [3, 9]: 193 ± 35.3 nM; IC50 [4, 10]: 162 ± 28.7 nM; IC50 [5, 11]: 147 ± 25.4 nM; IC50 [1, 12]: 155 ± 15.1 nM; cytotoxicity / antiproliferative activity in words [6]: over an order of magnitude increase in activity over the parental compound 7; IC50 ([6]; Homo sapiens, mean of KB, H460, HT29, MKN45, KB-VIN10, read-out: mean IC50 value against five cancer cell lines): 164 nM
< 10 |  | COc1cc(Sc2ccc3c(N)c(OC)ccc3n2)cc(OC)c1OC [Compound 82, 5-amino-6-methoxy-2-(3′,4′,5′-trimethoxyphenylthio)quinoline] | 
 | 153 to 155 | COc1cc(C(=O)c2cccc3cccnc23)cc(OC)c1OC [Compound 11, 8-(3′,4′,5′-trimethoxybenzoyl)quinoline] | IC50 [2, 8]: 6000 ± 800 nM; IC50 [3, 9]: 5000 ± 920 nM; IC50 [4, 10]: 4500 ± 1100 nM; IC50 [5, 11]: 3200 ± 700 nM; IC50 [1, 12]: 8100 ± 700 nM
472 | 203 to 205 | COc1cc(C(=O)c2ccc3c(-c4ccncc4)c(OC)ccc3n2)cc(OC)c1OC [Compound 33, 6-methoxy-5-pyridinyl-2-(3′,4′,5′-trimethoxybenzoyl)quinoline] | 
 | 149 to 151 | COc1cc(C(=O)c2ccc3cccnc3c2)cc(OC)c1OC [Compound 10, 7-(3′,4′,5′-trimethoxybenzoyl)quinoline] | IC50 [2, 8]: > 10000 nM; IC50 [3, 9]: > 10000 nM; IC50 [4, 10]: > 10000 nM; IC50 [5, 11]: > 10000 nM; IC50 [1, 12]: > 10000 nM; cytotoxicity / antiproliferative activity in words [6]: loss of cytotoxicity
 | 107 to 109 | COc1cc(C(=O)c2cnc3ccccc3c2)cc(OC)c1OC [Compound 6, 3-(3′,4′,5′-trimethoxybenzoyl)quinoline] | IC50 [2, 8]: 1100 ± 220 nM; IC50 [3, 9]: 1600 ± 380 nM; IC50 [4, 10]: 1000 ± 210 nM; IC50 [5, 11]: 562 ± 42 nM; IC50 [1, 12]: 1800 ± 100 nM
451 | 202 to 204 | COc1cc(C(=O)c2ccc3c(I)c(OC)ccc3n2)cc(OC)c1OC [Compound 34, 5-iodo-6-methoxy-2-(3′,4′,5′-trimethoxybenzoyl)quinoline] | 
 | 209 to 210 | COc1cc(Oc2ccc3c(N)c(OC)ccc3n2)cc(OC)c1OC [Compound 60, 5-amino-6-methoxy-2-(3′,4′,5′-trimethoxyphenoxy)quinoline] | 
 | 145 to 146 | COc1cc2nc(C(=O)c3ccc(F)cc3)ccc2c(OC)c1OC [Compound 51, 2-(4′-fluorobenzoyl)-5,6,7-trimethoxyquinoline] | 
 | 175 to 176 | COc1cc(C(=O)c2ccc3c(ccc[n+]3[O-])c2)cc(OC)c1OC [Compound 16, 6-(3′,4′,5′-trimethoxybenzoyl)quinoline N-oxide] | IC50 [2, 8]: 764 ± 111 nM; IC50 [3, 9]: 1100 ± 150 nM; IC50 [4, 10]: 872 ± 86.2 nM; IC50 [5, 11]: 617 ± 85 nM; IC50 [1, 12]: 830 ± 172 nM; fold reduction of activity compared with compound 9 ([6]; versus compound 9): > 10 fold
> 10000 | 136 to 137 | COc1ccc(-c2ccc3c(OC)c(OC)c(OC)cc3n2)cc1 [Compound 64, 2-(4′-methoxyphenyl)-5,6,7-trimethoxyquinoline] | 
> 10000 | 154 to 155 | COc1cc2nc(-c3ccc(N(C)C)cc3)ccc2c(OC)c1OC [Compound 65, 2-[4′-(N,N-dimethylamino)phenyl]-5,6,7-trimethoxyquinoline] | 
 | 187 to 188 | COc1cc(C(=O)c2ccc3c(ccc[n+]3C)c2)cc(OC)c1OC.[I-] [Compound 17, 6-(3′,4′,5′-trimethoxybenzoyl)-1-methylquinolinium iodide] | IC50 [2, 8]: > 10000 nM; IC50 [3, 9]: > 10000 nM; IC50 [4, 10]: > 10000 nM; IC50 [5, 11]: > 10000 nM; IC50 [1, 12]: > 10000 nM; cytotoxicity / antiproliferative activity in words ([6]; five cancer cell lines): drastic loss of activity
 | 145 to 147 | COc1cc(C(=O)c2cccc3ncccc23)cc(OC)c1OC [Compound 8, 5-(3′,4′,5′-trimethoxybenzoyl)quinoline] | IC50 [2, 8]: 2300 ± 400 nM; IC50 [3, 9]: 3800 ± 620 nM; IC50 [4, 10]: 2800 ± 310 nM; IC50 [5, 11]: 1200 ± 150 nM; IC50 [1, 12]: 2900 ± 400 nM
108 | 163 to 165 | COc1cc(C(=O)c2ccc3c(Br)c(OC)ccc3n2)cc(OC)c1OC [Compound 42, 5-bromo-6-methoxy-2-(3′,4′,5′-trimethoxybenzoyl)quinoline] | 
> 10000 | 222 to 223 | COc1cc(-c2ccc3c(N)c(OC)ccc3n2)cc(OC)c1OC [Compound 58, 5-amino-6-methoxy-2-(3′,4′,5′-trimethoxyphenyl)quinoline] | 
 | 149 to 151 | COc1cc(C(=O)c2ccc3nccnc3c2)cc(OC)c1OC [Compound 75, 6-(3′,4′,5′-trimethoxybenzoyl)quinoxaline] | 
> 10000 | 137 to 139 | COc1ccc(C(=O)c2ccc3c(OC)c(OC)c(OC)cc3n2)cc1F [Compound 50, 2-(3′-fluoro-4′-methoxybenzoyl)-5,6,7-trimethoxyquinoline] | 
> 10000 | 222 to 223 | COc1cc(Nc2ccc3c(N)c(OC)ccc3n2)cc(OC)c1OC [Compound 62, 5-amino-6-methoxy-2-(3′,4′,5′-trimethoxyphenylamino)quinoline] | 
226 |  | COc1cc2c(C(=O)c3ccc(N(C)C)cc3)ccnc2c(OC)c1OC [Compound 68, 4-[4′-(N,N-dimethyl)-benzoyl]-6,7,8-trimethoxyquinoline] | 
17 | 191 to 192 | COc1cc(C(=O)c2ccc3c(C#N)c(OC)ccc3n2)cc(OC)c1OC [Compound 43, 5-cyano-6-methoxy-2-(3′,4′,5′-trimethoxybenzoyl)quinoline] | 
< 10 |  | COc1cc(S(=O)(=O)c2ccc3c(N)c(OC)ccc3n2)cc(OC)c1OC [Compound 84, 5-amino-6-methoxy-2-(3′,4′,5′-trimethoxyphenylsulfonyl)quinoline] | 
471 |  | COc1cc(C(=O)c2ccc3c(O)c(OC)ccc3n2)cc(OC)c1O [Compound 87, 5-hydroxy-6-methoxy-2-(4′-hydroxy-3′,5′-dimethoxybenzoyl)quinoline] | 
1300 |  | COc1ccc(C(=O)c2ccnc3c(OC)c(OC)c(OC)cc23)cc1 [Compound 54, 4-(4′-methoxybenzoyl)-6,7,8-trimethoxyquinoline] | 
45 | 176 to 177 | COc1cc(C(=O)c2ccc3c(Cl)c(OC)ccc3n2)cc(OC)c1OC [Compound 47, 5-chloro-6-methoxy-2-(3′,4′,5′-trimethoxybenzoyl)quinoline] | 

Structure (SMILES) | IC50 [1, 7] [nM] | melting point [°C] | also measured
COc1cc(C(=O)c2ccnc3ccccc23)cc(OC)c1OC [Compound 7, 4-(3′,4′,5′-trimethoxybenzoyl)quinoline] |  | 109 to 110 | IC50 ([2]; KB-VIN10, 72 h): 2200 ± 600 nM; IC50 ([3]; NCI-H460, 72 h): 3800 ± 520 nM; IC50 ([4]; HT-29, 72 h): 2300 ± 480 nM; IC50 ([5]; MKN-45, 72 h): 920 ± 90 nM; IC50 ([1]; KB, 72 h, read-out: IC50 on the proliferation of cells, KB): 3500 ± 700 nM
